From ChEMBL document CHEMBL1201862, “PubChem BioAssay data set” (2004)
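Protocol summary: plate cells (96-well), add compound at 5 concentrations, incubate 48 h, interpolate endpoints linearly. GI50 marks 50% less growth.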 Calls of active or inactive are those of the source. Rule as the data show it: active = GI50 up to about 1.1 µM and inactive = higher.

Tests used:
Assay in all cases: NCI anticancer screen, dose series, 48 h
DLD-1 = tested on: DLD-1
KM-20L2 = tested on: KM-20L2
DMS-114 = tested on: DMS-114
SNB-78 = tested on: SNB-78
XF498 = tested on: XF498
HOP-18 = tested on: HOP-18
LXFL 529 = tested on: LXFL 529
M19-MEL = tested on: M19-MEL
RXF 631 = tested on: RXF 631

Clc1ccc(-c2c(C3=NCCCN3)nnn2-c2ccc(Cl)cc2)cc1 was tested, and the GI50 (DLD-1) was > 68.9 µM (inactive), the GI50 (KM-20L2) was 29.5 µM (inactive) and the GI50 (DMS-114) was 21.7 µM (inactive). For the same compound, the GI50 (SNB-78) was 43.6 µM (inactive), the GI50 (XF498) was 22.6 µM (inactive) and the GI50 (HOP-18) was > 100 µM (inactive). The GI50 (LXFL 529) was 29 µM (inactive).
Nc1ncnc2c(C3OC(CO)C(O)C3O)scc12 (stereo unspecified) was tested, and the GI50 (DLD-1) was 0.00212 µM (active), the GI50 (KM-20L2) was 0.00516 µM (active) and the GI50 (DMS-114) was 0.0292 µM (active). For the same compound, the GI50 (SNB-78) was 4.31 µM (inactive), the GI50 (XF498) was 0.0282 µM (active) and the GI50 (HOP-18) was < 0.01 µM (active). For the same compound, the GI50 (LXFL 529) was 0.129 µM (active) and the GI50 (M19-MEL) was 0.369 µM (active).
For Cc1c(C2Cc3ccccc3N2C(=O)/C=C\C(=O)O)c2ccccc2n1C (stereo unspecified), the GI50 (DLD-1) was 35.9 µM (inactive), the GI50 (KM-20L2) was 25.1 µM (inactive) and the GI50 (DMS-114) was 18.7 µM (inactive). For the same compound, the GI50 (SNB-78) was 35.5 µM (inactive), the GI50 (XF498) was 17.3 µM (inactive) and the GI50 (RXF 631) was > 100 µM (inactive). The GI50 (LXFL 529) was 17.3 µM (inactive) and the GI50 (M19-MEL) was 19.7 µM (inactive).
For CCOC(=O)c1nc2ccc([N+](=O)[O-])cc2c2c1CCO2, the GI50 (DLD-1) was > 100 µM (inactive), the GI50 (KM-20L2) was > 100 µM (inactive) and the GI50 (DMS-114) was > 100 µM (inactive). For the same compound, the GI50 (SNB-78) was > 100 µM (inactive), the GI50 (XF498) was > 100 µM (inactive) and the GI50 (HOP-18) was 71 µM (inactive). For the same compound, the GI50 (RXF 631) was > 100 µM (inactive), the GI50 (LXFL 529) was > 100 µM (inactive) and the GI50 (M19-MEL) was > 100 µM (inactive).
With O=C(Nc1cc(Cl)ccc1Cl)C(=O)C(c1cnc2ccccc2n1)[N+](=O)[O-] (stereo unspecified) the GI50 (DLD-1) was > 100 µM (inactive), the GI50 (KM-20L2) was > 100 µM (inactive) and the GI50 (DMS-114) was > 100 µM (inactive). The GI50 (SNB-78) was > 100 µM (inactive), the GI50 (XF498) was > 100 µM (inactive) and the GI50 (HOP-18) was > 100 µM (inactive). The GI50 (RXF 631) was > 100 µM (inactive), the GI50 (LXFL 529) was > 100 µM (inactive) and the GI50 (M19-MEL) was > 100 µM (inactive).
With O=C1OC(c2ccccc2)=N/C1=C\c1c(O)cc(O)cc1O the GI50 (KM-20L2) was > 100 µM (inactive), the GI50 (DMS-114) was > 100 µM (inactive) and the GI50 (SNB-78) was > 100 µM (inactive). For the same compound, the GI50 (HOP-18) was > 100 µM (inactive), the GI50 (LXFL 529) was 41 µM (inactive) and the GI50 (M19-MEL) was 83.6 µM (inactive).
For O=[N+]([O-])c1ccc2nc(/C(=N\Nc3ccccc3)C(O)c3ccc4c(c3)OCO4)c(O)nc2c1 (stereo unspecified), the GI50 (DLD-1) was > 100 µM (inactive), the GI50 (KM-20L2) was 67 µM (inactive) and the GI50 (DMS-114) was 37.4 µM (inactive). The GI50 (SNB-78) was > 100 µM (inactive), the GI50 (RXF 631) was > 100 µM (inactive) and the GI50 (LXFL 529) was 50.7 µM (inactive). For the same compound, the GI50 (M19-MEL) was > 100 µM (inactive).
With COc1ccc(-c2nc(N)n(C)c2SSc2c(-c3ccc(OC)cc3)nc(N)n2C)cc1 the GI50 (DLD-1) was 4.3 µM (inactive), the GI50 (KM-20L2) was 12.9 µM (inactive) and the GI50 (DMS-114) was 2.26 µM (inactive). The GI50 (XF498) was 2.13 µM (inactive), the GI50 (HOP-18) was 5.57 µM (inactive) and the GI50 (LXFL 529) was 1.67 µM (inactive). For the same compound, the GI50 (M19-MEL) was 2.29 µM (inactive).
For Cc1ccc(N2C(=O)/C(=C/c3ccc(N(CCC#N)CCC#N)cc3)N=C2COc2ccc(Cl)cc2Cl)cc1, the GI50 (DLD-1) was > 100 µM (inactive), the GI50 (KM-20L2) was > 100 µM (inactive) and the GI50 (DMS-114) was > 100 µM (inactive). The GI50 (SNB-78) was > 100 µM (inactive), the GI50 (XF498) was > 100 µM (inactive) and the GI50 (HOP-18) was 33.8 µM (inactive). The GI50 (RXF 631) was > 100 µM (inactive) and the GI50 (LXFL 529) was > 100 µM (inactive).
With N#C/N=C(\N)NCCO the GI50 (DLD-1) was > 100 µM (inactive), the GI50 (KM-20L2) was > 100 µM (inactive) and the GI50 (DMS-114) was 75.3 µM (inactive). For the same compound, the GI50 (SNB-78) was > 100 µM (inactive), the GI50 (XF498) was > 100 µM (inactive) and the GI50 (HOP-18) was > 100 µM (inactive). For the same compound, the GI50 (RXF 631) was > 100 µM (inactive), the GI50 (LXFL 529) was > 100 µM (inactive) and the GI50 (M19-MEL) was 40.3 µM (inactive).
For C/N=c1\ss/c(=N\C(=S)N(C)C)n1C1CCCCC1, the GI50 (DLD-1) was > 100 µM (inactive), the GI50 (KM-20L2) was > 31.6 µM (inactive) and the GI50 (DMS-114) was > 31.6 µM (inactive). The GI50 (SNB-78) was > 31.6 µM (inactive), the GI50 (XF498) was > 31.6 µM (inactive) and the GI50 (HOP-18) was > 31.6 µM (inactive). For the same compound, the GI50 (RXF 631) was > 100 µM (inactive), the GI50 (LXFL 529) was > 31.6 µM (inactive) and the GI50 (M19-MEL) was > 31.6 µM (inactive).
Oc1cc(Cl)ncn1 was tested, and the GI50 (DLD-1) was > 100 µM (inactive), the GI50 (KM-20L2) was > 100 µM (inactive) and the GI50 (DMS-114) was > 100 µM (inactive). For the same compound, the GI50 (SNB-78) was > 100 µM (inactive), the GI50 (HOP-18) was > 100 µM (inactive) and the GI50 (RXF 631) was > 100 µM (inactive). For the same compound, the GI50 (LXFL 529) was > 100 µM (inactive) and the GI50 (M19-MEL) was > 100 µM (inactive).
For Cc1c(C(=O)CC(=O)C(=O)NC2C3CC4CC(C3)CC2C4)[n+]([O-])c2ccccc2[n+]1[O-] (stereo unspecified), the GI50 (KM-20L2) was > 100 µM (inactive), the GI50 (DMS-114) was > 100 µM (inactive) and the GI50 (SNB-78) was > 100 µM (inactive). For the same compound, the GI50 (XF498) was 93.5 µM (inactive), the GI50 (HOP-18) was 24.4 µM (inactive) and the GI50 (RXF 631) was > 100 µM (inactive). The GI50 (LXFL 529) was > 100 µM (inactive) and the GI50 (M19-MEL) was 90.2 µM (inactive).
O=C(O)CCC(NC(=O)c1ccc(Nc2nc3cc(C(F)(F)F)ccc3nc2-c2ccccc2)cc1)C(=O)O (stereo unspecified) was tested, and the GI50 (DLD-1) was > 76 µM (inactive), the GI50 (KM-20L2) was 24.3 µM (inactive) and the GI50 (DMS-114) was > 100 µM (inactive). For the same compound, the GI50 (SNB-78) was > 95.9 µM (inactive), the GI50 (XF498) was > 78.2 µM (inactive) and the GI50 (HOP-18) was > 100 µM (inactive). The GI50 (M19-MEL) was > 100 µM (inactive).
In the case of CNC(=O)CN1CC(=O)N(C)C(=O)C1, the GI50 (DLD-1) is reported as > 100 µM (inactive), the GI50 (KM-20L2) is reported as > 100 µM (inactive) and the GI50 (SNB-78) is reported as > 100 µM (inactive). The GI50 (XF498) was > 100 µM (inactive), the GI50 (LXFL 529) was > 100 µM (inactive) and the GI50 (M19-MEL) was > 100 µM (inactive).
